# Data published in the supplement of paper PMC10307832.
# Columns and labels:
# Assay in all cases: relative viability (nuclei count vs DMSO), 5 days (fraction); higher = more cells survive
# [1] = compound: CCC1=CN=CN=C1N2CCN(CC2)CC3=NC4=C(N3)C=C(C=C4)C(F)(F)F + NC(=O)Nc1cc(-c2cccc(F)c2)sc1C(=O)N[C@H]1CCCNC1 [AZD7762] (partner 0.2 µM)
# Summary of the method: (§1)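 Values are medians from duplicate plates. Each reflects relative viability, defined as the nuclei count of treated wells over that of vehicle wells. Lung cancer cell lines in 1536-well plates were pin-tool dosed one day after seeding with one drug alone or with a fixed anchor-drug dose plus five library-drug doses (not always all listed) in √10 steps, then fixed, stained and imaged at 4× after 5 days.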
# [2] = compound: CCn1c(-c2nonc2N)nc2cnc(Oc3cccc(NC(=O)c4ccc(OCCN5CCOCC5)cc4)c3)cc21 + CC(=O)c1c(C)c2cnc(Nc3ccc(N4CCNCC4)cn3)nc2n(C2CCCC2)c1=O [Palbociclib] (partner 0.5 µM)
# Summary of the method: as §1
# [3] = compound: CCn1c(-c2nonc2N)nc2cnc(Oc3cccc(NC(=O)c4ccc(OCCN5CCOCC5)cc4)c3)cc21 + C[C@]1(O)C[C@@H](c2nc(-c3ccc4ccc(-c5ccccc5)nc4c3)c3c(N)nccn32)C1 [Linsitinib] (partner 1 µM)
# Summary of the method: as §1
# Mirin + Palbociclib = compound: N=C1NC(=O)/C(=C/c2ccc(O)cc2)S1 [Mirin] + CC(=O)c1c(C)c2cnc(Nc3ccc(N4CCNCC4)cn3)nc2n(C2CCCC2)c1=O [Palbociclib] (partner 0.5 µM)
# Summary of the method: as §1
Cell Line,relative viability ([1]; first compound 0.04 µM),relative viability ([1]; first compound 0.1265 µM),relative viability ([1]; first compound 0.4 µM),relative viability ([1]; first compound 1.265 µM),relative viability ([1]; first compound 4 µM),relative viability ([2]; first compound 0.04 µM),relative viability ([2]; first compound 0.1265 µM),relative viability ([2]; first compound 0.4 µM),relative viability ([2]; first compound 1.265 µM),relative viability ([2]; first compound 4 µM),relative viability ([3]; first compound 0.04 µM),relative viability ([3]; first compound 0.1265 µM),relative viability ([3]; first compound 0.4 µM),relative viability ([3]; first compound 1.265 µM),relative viability ([3]; first compound 4 µM),relative viability (Mirin + Palbociclib; first compound 0.25 µM),relative viability (Mirin + Palbociclib; first compound 0.7906 µM),relative viability (Mirin + Palbociclib; first compound 2.5 µM),relative viability (Mirin + Palbociclib; first compound 7.906 µM),relative viability (Mirin + Palbociclib; first compound 25 µM)
CAL-12T,0.501,0.6,0.609,0.679,0.604,0.778,0.619,0.47,0.345,0.298,1.12,1.01,0.768,0.704,0.731,0.265,0.193,0.508,0.408,0.339
COR-L23,,,,,,0.308,0.25,0.129,0.173,0.127,1,0.785,0.521,0.172,0.148,0.369,0.299,0.245,0.268,0.341
COR-L 105,,,,,,0.407,0.402,0.344,0.36,0.336,0.774,0.766,0.862,0.451,0.391,0.426,0.415,0.376,0.432,0.42
Calu-6,,,,,,,,,,,0.964,0.94,0.616,0.524,0.536,,,,,
ChaGo-K-1,0.835,0.836,0.881,0.816,0.961,1.08,0.896,0.846,0.907,0.928,,,,,,0.915,0.961,0.973,0.919,0.68
EBC-1,,,,,,,,,,,0.852,1.09,0.78,0.79,0.876,,,,,
